The record followed here is the SangsterLogP compilation.

This data set can be described thus: method code SF-AS, from Smul'skii, S.; Bogatskii, A.; Andronati, S.; Vikhlyaev, Yu.; Zhilina, Z. (1977). Lipophilic nature of quinazolin-2-ones and 1,2-dihydro-3H-1,4-benzodiazepin-2-ones. Otdel. Khim. Nauk., 235(2)369-371. The conditions noted are these: pH 7.4.
As for `O=C1CN(O)C(c2ccccc2)=c2cc(Br)ccc2=N1`, the log distribution coefficient (logD) (commonly the decadic logarithm of the distribution of all forms, ionised or not, between an organic phase and buffer at a given pH) was found to be 1.53. `O=C1Nc2ccc(Br)cc2C(c2ccccc2Cl)=NC1O` (configuration not stated) registered a logD of 2.54. The compound `CC1N=C(c2ccccc2)c2cc(Cl)ccc2NC1=O` (configuration not stated) registered a log distribution coefficient (logD) of 3.25. With `O=c1nc(-c2ccccc2)c2ccccc2[nH]1`, the logD was 1.91. The compound `CCCC1N=C(c2ccccc2)c2cc(Cl)ccc2NC1=O` (configuration not stated) showed a logD of 4.14. The compound `CCC1N=C(c2ccccc2)c2cc(Br)ccc2NC1=O` (configuration not stated) showed a pH-dependent lipophilicity (logD) of 3.79. Regarding `CC(=O)OC1N=C(c2ccccc2)c2cc(Br)ccc2NC1=O` (configuration not stated), the logD was 2.76. For the compound `CC(C)C1N=C(c2ccccc2)c2cc(Br)ccc2NC1=O` (configuration not stated), the log distribution coefficient (logD) came out at 4.18. In turn, `O=C1CN=C(c2ccccc2)c2cc(Br)ccc2N1` yielded a log distribution coefficient (logD) of 3.11. Turning to `Cc1ccc2c(c1)=C(c1ccccc1)N(O)CC(=O)N=2`, the logD was 1.13.

The compound `CC(=O)OC1N=C(c2ccccc2)c2cc(Cl)ccc2NC1=O` (configuration not stated) displayed a logD of 2.6.

`CC(C)C1N=C(c2ccccc2)c2cc(Cl)ccc2NC1=O` (configuration not stated) showed a pH-dependent lipophilicity (logD) of 4. As to `Cc1ccc2[nH]c(=O)nc(-c3ccccc3)c2c1`, the logD worked out at 2.32.

In turn, `O=c1nc(-c2ccccc2)c2cc(Br)ccc2[nH]1` gave a pH-dependent lipophilicity (logD) of 2.71.

`CC1N=C(c2ccccc2)c2cc(Cl)ccc2N(C)C1=O` (configuration not stated) returned a log distribution coefficient (logD) of 3.68. Then `O=c1nc(-c2ccccc2)c2cc(Cl)ccc2[nH]1`, with 2.53; and `O=C1CN=C(c2ccccc2Cl)c2cc(Br)ccc2N1`, with 3.3.
